Measured values from patent US20160039914A1 (priority 2013, published 2016).

What was measured:
MRSA strain 38 = test system: MRSA strain 38; design: species or system S. aureus; details: in vivo
[1] = test system: S. aureus (MRSA strain 38); details: in vivo, iv

Q: What does the source list for `CN[C@H](CC(C)C)C(=O)N[C@H]1C(=O)N[C@@H](CC(N)=O)C(=O)N[C@H]2C(=O)N[C@H]3C(=O)N[C@H](C(=O)N[C@H](C(=O)O)c4cc(O)cc(O)c4-c4cc3ccc4O)[C@H](O)c3ccc(c(Cl)c3)Oc3cc2cc(c3O[C@@H]2O[C@H](CO)[C@@H](O)[C@H](O)[C@H]2O[C@H]2C[C@](C)(N)[C@H](O)[C@H](C)O2)Oc2ccc(cc2Cl)[C@H]1O` [vancomycin]?
A: mIL-1ra level in abscess fluid (MRSA strain 38): not significantly reduced; mIL-6 level in abscess fluid (MRSA strain 38): not significantly reduced; neutrophil and eosinophil counts (MRSA strain 38): lower; IFN-γ in serum [1]: 2.98 ± 1.64; IL-1β in serum [1]: 3.51 ± 1.08; IL-6 in serum [1]: 379.72 ± 335.45; IL-10 in serum [1]: 16.75 ± 6.67; IL-12p70 in serum [1]: 61.55 ± 23.71; KC/GRO in serum [1]: 260.69 ± 122.01; TNF-α in serum [1]: 1.46 ± 0.68
